Data from patent US8114850B2, “Antiproliferative activity of G-rich oligonucleotides and method of using same to bind to nucleolin” (Advanced Cancer Therapeutics, LLC, priority 1999, dated 2012).

How the values were obtained:
[1] = molecular target: T1, 106 kDa nuclear protein (p106, GRO-binding protein/nucleolin) (Homo sapiens, UniProt P19338); assay: Southwestern blot of HeLa nuclear extracts; conditions: 32P-labeled oligonucleotide, 4° C.; FIG. 6D
T1 construct: HeLa nuclear extracts used in EMSAs were purchased from Promega Inc. (bandshift grade); host or cells: HeLa nuclear extract (bandshift grade), purchased
T1 sequence (P19338 whole entry): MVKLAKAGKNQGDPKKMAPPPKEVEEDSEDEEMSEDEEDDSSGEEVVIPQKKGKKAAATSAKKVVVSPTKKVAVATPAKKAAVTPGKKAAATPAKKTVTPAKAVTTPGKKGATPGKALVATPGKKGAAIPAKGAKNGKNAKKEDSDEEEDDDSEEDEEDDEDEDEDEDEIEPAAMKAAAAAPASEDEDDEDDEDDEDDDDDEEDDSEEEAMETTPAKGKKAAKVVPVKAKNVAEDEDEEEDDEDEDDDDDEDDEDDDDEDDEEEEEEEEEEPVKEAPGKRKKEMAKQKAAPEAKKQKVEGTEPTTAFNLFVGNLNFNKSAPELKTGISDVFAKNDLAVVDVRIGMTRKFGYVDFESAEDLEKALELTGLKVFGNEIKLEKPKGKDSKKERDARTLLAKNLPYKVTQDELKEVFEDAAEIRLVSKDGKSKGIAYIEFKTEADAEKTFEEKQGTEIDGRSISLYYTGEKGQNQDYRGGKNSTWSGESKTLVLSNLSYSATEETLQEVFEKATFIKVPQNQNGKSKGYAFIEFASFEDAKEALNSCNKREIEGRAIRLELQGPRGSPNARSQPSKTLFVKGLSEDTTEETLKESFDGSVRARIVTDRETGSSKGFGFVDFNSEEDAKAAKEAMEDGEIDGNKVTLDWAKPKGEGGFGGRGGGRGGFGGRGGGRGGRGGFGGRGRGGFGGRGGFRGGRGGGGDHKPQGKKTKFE
Procedure: Nuclear extracts were electrophoresed on a 8% polyacrylamide-SDS gel and transferred to polyvinylidene difluoride (PVDF) membrane by electroblotting using a Tris glycine/methanol (10% v/v) buffer. Immobilized proteins were denatured and renatured by washing for thirty minutes at 4° C. with 6 M guanidine. HCl followed by washes in 1:1, 1:2 and 1:4 dilutions of 6M guanidine in HEPES binding buffer (25 mM HEPES pH 7.9, 4 mM KCl, 3 mM MgCl2). The membrane was blocked by washing for one hour in a 5% solution of non-fat dried milk (NDM) in binding buffer.
Hybridization of the labeled oligonucleotide (1-4×10^6 cpm) took place for two hours at 4° C. in HEPES binding buffer supplemented with 0.25% NDM, 0.05% Nonidet P […] salmon sperm DNA and […] of an unrelated, mixed sequence 35-mer oligonucleotide (5′-[…] CTTCCTTCCTCTCCA-3′SEQ ID No: 19). Membranes were washed in binding buffer and visualized by autoradiography.
The molecular weight of the nuclear protein was more accurately determined by Southwestern blotting. HeLa nuclear extracts were electrophoresed on an 8% polyacrylamide-SDS gel and transferred to a PVDF membrane. The membrane was blocked and cut into strips. Each strip was incubated at 4° C. with a 32P-labeled G-rich oligonucleotide in the presence of unrelated unlabeled double stranded and single stranded DNA to block non-specific binding.

[2] = Detection of G-quartets by UV thermal denaturation/renaturation; type: physicochemical; conditions: absorbance at 295 nm; FIG. 4
Procedure: Oligonucleotides were resuspended in Tm buffer (20 mM Tris HCl, pH 8.0, 140 mM KCl, 2.5 mM MgCl2) at a concentration such that A260=0.6 (molar concentrations ranged from […]). Samples were annealed by boiling for five minutes and allowing to cool slowly to room temperature and overnight incubation at 4° C. Thermal denaturation/renaturation experiments were carried out using an Amersham Pharmacia Biotech Ultrospec 2000 instrument equipped with a Peltier effect heated cuvette holder and temperature controller (Amersham Pharmacia Biotech). Absorbance at 295 nm was monitored over a temperature range of 25-95 or 20-90° C. at a heating/cooling rate of 0.5° C./min. To investigate the formation of G-quartet structures by the G-rich oligonucleotides, a U.V. melting technique described by […] et al. (1998) FEBS Lett. 435, 74-78 was used. This method relies on the fact that dissociation of G-quartets leads to a decrease in absorbance at 295 nm and is reported to give a more reliable indication of intramolecular G-quartet formation than measurement at 260 nm.

HS27 cells = assay: MTT cell growth assay, non-malignant HS27 cells; type: cell-based; conditions: compared to most malignant cell lines; FIG. 2
Procedure: Cells were plated at low density ([…] cells per well, depending on cell line) in the appropriate serum-supplemented medium in 96-well plates (one plate per MTT assay time point) and grown under standard conditions of cell culture. The following day (day 1) oligonucleotide, or water as control, was added to the culture medium to give a final concentration of 15 uM. Further oligonucleotide, equivalent to half the initial dose, was added to the culture medium on days two, three and four.
Cells were assayed using the MTT assay (Morgan (1998) Methods. Mol. Biol. 79, 179-183) on days one, three, five, seven and nine after plating. The culture medium was not changed throughout the duration of the experiment (which was the time required for untreated cells to grow to confluence). Experiments were performed in triplicate and bars represent the standard error of the data.

U937 cells = assay: MTT dose dependence, leukemic cell line U937; type: cell-based; conditions: FIG. 3
Text: (§1) FIG. 3: MTT assays showing the dose dependence of growth modulation by GR029A for leukemic cell lines, U937 and […], and a non-malignant mouse hematopoietic stem cell line (ATCC 2037).

K562 cells = assay: MTT dose dependence, leukemic cell line K562; type: cell-based; conditions: FIG. 3
Text: as §1

[3] = system: hematopoietic stem cell line (ATCC 2037); assay: MTT dose dependence, non-malignant hematopoietic stem cell line; type: cell-based, mouse; conditions: FIG. 3
Text: as §1

[4] = system: MDA-MB-231 breast cancer cells; assay: Chemotherapeutic agent and GRO combination, MTT assay; type: cell-based, human; conditions: cisplatin 0.5 µg/ml, GR029A 8 uM added after two hours, MTT after six days
Procedure: Cisplatin (in 1% DMSO solution to give a final concentration of […]) was added to the medium of MDA-MB-231 breast cancer cells growing in culture. After two hours, GR029A (in PBS solution to give a final concentration of 8 uM) was added to the medium. After six days, the relative number of viable cells was determined using the MTT assay. Cells treated with GR029A alone received an appropriate volume of 1% DMSO in place of cisplatin. Cells treated with cisplatin alone received an appropriate volume of PBS in place of GR029A.

[5] = molecular target: T2, TEL-binding protein (GRO-binding protein/nucleolin, MDA-MB-231 nuclear extracts) (Homo sapiens, UniProt P19338); assay: Competitive EMSA, labeled TEL and MDA-MB-231 nuclear extracts; conditions: 10 nM unlabeled oligonucleotide; labeled TEL, MDA-MB-231 nuclear extracts
T2 construct: Nuclear and cytoplasmic extracts from MDA-MB-231 cells were prepared using the protocol described in F. M. Ausubel et al; endogenous in cells; host or cells: MDA-MB-231 nuclear extract, prepared in house
T2 sequence (P19338 whole entry): as above

Substance	hybridization to protein band at 106 kDa (Southwestern blot) [1]	G-quartet formation (UV annealing curve) [2]	growth modulatory effect on non-malignant HS27 cells (HS27 cells)	antiproliferative effect, U937 leukemia cells (U937 cells)	antiproliferative effect, K562 leukemia cells (K562 cells)	growth modulatory effect, non-malignant hematopoietic stem cell line (ATCC 2037) [3]	growth modulation [4]	competition for protein binding in competitive EMSA [5]
5′-GTTGTTTGG GGTGGT-3′ (GTTGTTTGGGGTGGT; DNA, backbone not given here; further chemistry not fully specified) [GRO15A]	hybridized to a single protein band at 106 kDa	suggestive of G-quartet formation						
5′-TTTGGTGGTGGTGG TTGTGGTGGTGGTGG-3′ [GR029A]	hybridized to a single protein band at 106 kDa	clearly indicating the presence of G-quartets	lesser growth modulatory effect	antiproliferative effects	antiproliferative effects	lesser growth modulatory effect	5%	competed strongly
